Entries after “also recorded” stand apart in the source; their conditions may differ. Where a SMILES comes first, the peptide text is derived from it. Where no end group is shown, it is not given here.
What was measured:
chymotrypsin [1] = settings: cited from earlier work
Text: (§1) The McC as a new generation of antimicrobials is now receiving increased attention because of its antimicrobial activity against a wide range of Gram-negative bacteria, including Escherichia, Klebsiella, Salmonella, Shigella, and Proteus species. However, […] proteolytic enzymes in the stomach and the small intestine, such as pepsin, trypsin, and chymotrypsin, need to be considered before the application of McC or other microcins in different fields.

[2] = cited from earlier work
Text: as §1

indicator bacteria = settings: second to seventh codons of mccA replaced; cited from earlier work
Text: The heptapeptide precursor of McC, f-MRTGNAN, is encoded by the first gene in the mcc gene clusters, mccA [11]. Considering its protein nature, it is suitable for gene-based peptide engineering. Kazakov et al. first applied site-directed mutagenesis on the mccA gene, systematically replacing the second to seventh codons of mccA encoding 19 standard amino acids for a total of 114 mutations.

pepsin = test: Remaining amount by RP-HPLC after pepsin treatment; assay type: in vitro ADME; settings: pepsin (isolated protease); pepsin treated for 3 h; read-out RP-HPLC; Table S2
chymotrypsin [3] = test: Remaining amount by RP-HPLC after chymotrypsin treatment; assay type: in vitro ADME; settings: chymotrypsin (isolated protease); chymotrypsin treated for 3 h; read-out RP-HPLC; Table S2
E. coli K88 = test: microbe, parasite or virus in culture; assay type: cell-based; settings: agar diffusion, fermentation supernatant, not trypsin-treated
trypsin = test: Remaining amount by RP-HPLC after trypsin treatment; settings: trypsin treatment 3 h
Experimental: To test whether the variants were tolerant to trypsin or other digestive enzymes, the amount of the remaining McC and its analogues remaining was determined by RP-HPLC after trypsin, pepsin, and chymotrypsin treated for 3 h (Table S2), and the inhibition zones of trypsin-treated variants were tested using the same method (Table 2).
The fermentation broth was collected via centrifugation at 12,000× g at 4 °C for 10 min; the supernatants contained the McC variants. The supernatants and trypsin were mixed at a ratio of 9:1 (v/v; the final concentration of trypsin was 50 μg/mL) and incubated in a bath at 37 °C for 3 h. The pH was adjusted to 6.8. The pH value of the fermentation broth was measured before and after treatment, and an approximate pH value of 7 was considered normal.

Row | Compound | degradation upon exposure to chymotrypsin (chymotrypsin [1]) | stability in the gastrointestinal tract [2] | antimicrobial activity of mccA substitution variants (indicator bacteria) | remaining at 3 h (pepsin) | remaining at 3 h (chymotrypsin [3]) | bacteriostatic effect on indicator strain K88 (E. coli K88) | degradation by / resistance to trypsin (trypsin)
1 | microcin J25 (GGAGHVPEYFVGIGTPISFYG; ends and bridges not checked; UniProt Q9X2V7 38-58, looked up) [microcin studied by Yu et al] | completely degraded | stable | – | – | – | – | –
2 | CSCC[C@H](NC=O)C(=O)N[C@@H](Cc1c[nH]c2ccccc12)C(=O)N[C@H](C(=O)NCC(=O)N[C@@H](CC(N)=O)C(=O)N[C@@H](C)C(=O)N[C@@H](CC(=O)O)C(=O)NP(=O)(OCCCN)OC[C@H]1O[C@@H](n2cnc3c(N)ncnc32)[C@H](O)[C@@H]1O)[C@@H](C)O (stereo partly shown) [R2W] (HELM PEPTIDE1{[O=C[*:2]].M.W.T.G.N.A.[NCCCOP(=O)(NC(=O)[C@H](CC(=O)O)N[*:1])OC[C@H]1O[C@@H](n2cnc3c(N)ncnc32)[C@H](O)[C@@H]1O]}$$$$V2.0) | – | – | bacteriostatic | 91.3 ± 1.26% | 41.3 ± 1.03% | no bacteriostatic effects | –
3 | MRPGNAN [T3P] | – | – | – | – | – | no bacteriostatic effects | no longer degraded by trypsin; also recorded: exhibited resistance to trypsin
4 | MRPTGNAN | – | – | – | – | – | no bacteriostatic effects | no longer degraded by trypsin; also recorded: exhibited resistance to trypsin
